Several values for one entry are separate records, joined by “and”; a condition that tells them apart may be missing. Equal entries are not always repeated.
What was measured:
[1] = system: isolate (pathogen from urine of patients with uncomplicated UTI); experiment: MIC of the patients' urine isolates; type: cell-based; conditions: ciprofloxacin MIC of each patient's isolate (patients 1-7, one line per patient)
[2] = system: fluoroquinolone-susceptible pathogens in the urine; experiment: Concentration of pathogens in the urine of patients with uncomplicated UTIs after a single oral dose; type: in vivo; conditions: for Bacteria per ml urine - hours after dose: 2 hours: 2 hours after oral dose of 300 mg finafloxacin or 250 mg ciprofloxacin; for Bacteria per ml urine - hours after dose: 2 hours / Bacteria per ml urine - hours after dose: 4 hours / Bacteria per ml urine - hours after dose: 8 hours: individual patients, uncomplicated UTI; for Bacteria per ml urine - hours after dose: 4 hours: 4 hours after oral dose of 300 mg finafloxacin or 250 mg ciprofloxacin; for Bacteria per ml urine - hours after dose: 8 hours: 8 hours after oral dose of 300 mg finafloxacin or 250 mg ciprofloxacin
Experimental: Patients with uncomplicated UTIs were treated with an oral dose of 300 mg finafloxacin or 250 mg of ciprofloxacin and the concentrations of the fluoroquinolone-susceptible pathogens in the urine were determined before and 2, 4 and 8 hours after intake of the drugs. (−bacterial titers below 10^3).

[3] = Solubility of finafloxacin in the presence of Tris; type: physicochemical; conditions: compared with other buffer substances (e.g. phosphate buffer)
Excerpt: (§1) However, Tris is herein used as solubility enhancing agent. […] Both effects lead to a completely unexpected result. Tris is therefore to be regarded as a specific tool to considerably enhance the solubility of finafloxacin in solutions. By preparing compositions comprising Tris it is possible to dissolve finafloxacin stably in such an amount therein that these compositions can effectively be used as parenteral compositions for the treatment of UTIs.

Pseudomonas aeruginosa = experiment: Reduction of viable bacteria after 1 h exposure in broth adjusted to different pH values; type: cell-based; conditions: 1 h of incubation, inoculum 10^6 colony forming units per ml
Experimental: (§2) An overnight inoculum of 10^6 colony forming units per ml broth adjusted to different pH values of different pathogens was exposed to finafloxacin. Bacterial growth was determined before and after 1 h of incubation.

[4] = system: Stenotrophomonas maltophilia clinical isolate; experiment: as above; type: cell-based; conditions: 1 h of incubation, inoculum 10^6 colony forming units per ml
Experimental: as §2

[5] = system: complicated UTIs or pyelonephritis; experiment: Double-blind, randomized clinical study, complicated UTIs or pyelonephritis: treatment success (combined clinical and microbiological response); type: in vivo, patients; conditions: 17 days after start of treatment
[6] = Stability of finafloxacin solutions comprising Tris; type: physicochemical; conditions: compositions comprising Tris
Excerpt: as §1

Structure (SMILES) | MIC of isolate [Cipro mg/L] [1] | Bacteria per ml urine - hours after dose: 2 hours [2] | Bacteria per ml urine - hours after dose: 2 hours ([2]; listed as ciprofloxacin) | Bacteria per ml urine - hours after dose: 4 hours [2] | Bacteria per ml urine - hours after dose: 4 hours ([2]; listed as ciprofloxacin) | Bacteria per ml urine - hours after dose: 8 hours [2] | solubility [3] | number of viable bacteria in the medium reduced by (Pseudomonas aeruginosa; pH 5.2) | number of viable bacteria in the medium reduced by (Pseudomonas aeruginosa; pH 6.2) | number of viable bacteria in the medium reduced by (Pseudomonas aeruginosa; pH 7.2) | number of viable bacteria in the medium reduced by ([4]; pH 5.2) | number of viable bacteria in the medium reduced by ([4]; pH 7.2) | Bacteria per ml urine - hours after dose: 2 hours ([2]; listed as finafloxacin) | time after intake within which pathogens are eradicated in the urine ([2]; oral formulation, patients with uncomplicated UTIs) | treatment success (combined clinical response and microbiological response) ([5]; overall treatment duration 5 days (3 days intravenous 800 mg daily, then oral 800 mg daily)) | treatment success (combined clinical response and microbiological response) ([5]; overall treatment duration 10 days (3 days intravenous, then 7 days oral)) | stability of solutions [6]
O=C(O)c1cn(C2CC2)c2cc(N3CCNCC3)c(F)cc2c1=O [Ciprofloxacin, reference compound] | 0.012 mg/L (3×) and 0.19 mg/L (2×) and 0.008 mg/L (2×) | — (bacterial titers below 10^3) and 2.0 × 10^3 Bacteria per ml urine and 6.1 × 10^4 Bacteria per ml urine | above 10^3 Bacteria per ml urine | — (bacterial titers below 10^3) (2×) and 2.7 × 10^3 Bacteria per ml urine | above 10^3 Bacteria per ml urine | — (bacterial titers below 10^3) | – | – | – | – | – | – | – | – | – | – | –
N#Cc1c(N2C[C@@H]3NCCO[C@H]3C2)c(F)cc2c(=O)c(C(=O)O)cn(C3CC3)c12 [Finafloxacin, (−)-8-cyano-1-cyclopropyl-6-fluoro-7-[(4aS,7aS)-hexahydropyrrolo[3,4-B]-1,4-oxazin-6(2H)-yl]-4-oxo-1,4-dihydroquinoline-3-carboxylic acid] | – | — (bacterial titers below 10^3) | – | — (bacterial titers below 10^3) | – | — (bacterial titers below 10^3) | high solubility | 98.6% | 99.3% | 99.9% | 87.4% | 99.8% | below 10^3 Bacteria per ml urine | ≤ 2 h | 70.3% | 67.6% | long term stability

From patent US10485805B2, “Finafloxacin for use in the treatment of urinary tract infections” (MerLion Pharmaceuticals Pte. Ltd., priority 2015, dated 2019)
